In PubChem BioAssay AID1259408 (Genetic Toxicology Data Bank (GENE-TOX), 2018):
Active and inactive are the calls of the source. No rule for the calls is given here.

System: GENE-TOX genotoxicity assays, various organisms and cells
Assay: GENE-TOX mutagenicity studies
Conditions: for call: Assay Type: In vivo carcinogenicity studies
[1] = Species/Cell Type: Human lymphocytes, Assay Type: Sister-chromatid exchange (SCE) in vitro, Assay Code: SCL+, Evaluation Type: Evaluation B (Post-1980)
[2] = Species/Cell Type: Human, Assay Type: Sister-chromatid exchange (SCE) in vitro, Assay Code: SC1+, Evaluation Type: Evaluation B (Post-1980)
[3] = Species/Cell Type: Mammalian polychromatic erythrocytes, Assay Type: Micronucleus test, chromosome aberrations, Assay Code: MNT+, Evaluation Type: Evaluation B (Post-1980)
[4] = Species/Cell Type: Nonhuman, Assay Code: CCGT, Evaluation Type: Evaluation A (Pre-1980)
[5] = Species/Cell Type: Nonhuman, Assay Type: Sister-chromatid exchange (SCE) in vitro, Assay Code: SC2+D, Dose Response: With dose response, Evaluation Type: Evaluation A (Pre-1980)
[6] = Species/Cell Type: Salmonella typhimurium (one or more of the five standard strains: TA98, TA100, TA1535, TA1537, and TA1538), Assay Type: Histidine reverse gene mutation, Ames assay, Assay Code: SAL+*, Activation: With metabolic activation, Evaluation Type: Evaluation A (Pre-1980)
[7] = Species/Cell Type: Human lymphocytes, Assay Type: Sister-chromatid exchange (SCE) in vitro, Assay Code: SCLT, Evaluation Type: Evaluation B (Post-1980)
[8] = Species/Cell Type: Salmonella typhimurium (one or more of the five standard strains: TA98, TA100, TA1535, TA1537, and TA1538), Assay Type: Histidine reverse gene mutation, Ames assay, Assay Code: SALT, Evaluation Type: Evaluation A (Pre-1980)
[9] = Species/Cell Type: Nonhuman, Assay Code: CCG+L, Evaluation Type: Evaluation A (Pre-1980)
[10] = Species/Cell Type: Nonhuman, Assay Code: CCG+, Evaluation Type: Evaluation A (Pre-1980)
[11] = Species/Cell Type: Salmonella typhimurium (one or more of the five standard strains: TA98, TA100, TA1535, TA1537, and TA1538), Assay Type: Histidine reverse gene mutation, Ames assay, Assay Code: SAL+, Evaluation Type: Evaluation A (Pre-1980)

CN(C)c1ccc2cc3ccc(N(C)C)cc3nc2c1
mutagenic call (Species/Cell Type: Allium cepa, Assay Type: Chromosome aberrations, Assay Code: ALC+D, Dose Response: With dose response, Evaluation Type: Evaluation A (Pre-1980)): active; positive | mutagenic call (Species/Cell Type: Bacillus subtilis (H17 vs M45T), Assay Type: Rec-assay, spot test, DNA effects (bacterial DNA repair), Assay Code: REXT, Evaluation Type: Evaluation A (Pre-1980)): no conclusion | mutagenic call (Species/Cell Type: Chinese hamster ovary (CHO) cells, Assay Type: Forward gene mutation at the HPRT locus, Assay Code: CHO+, Evaluation Type: Evaluation B (Post-1980)): active; positive | mutagenic call (Species/Cell Type: Drosophila melanogaster, Assay Type: Sex-linked recessive lethal gene mutation, Assay Code: SRLT, Evaluation Type: Evaluation A (Pre-1980)): no conclusion | mutagenic call (Species/Cell Type: Escherichia coli polA (W3119 vs P3478), Assay Type: Rec-assay, DNA effects (bacterial DNA repair), Assay Code: RE1+, Evaluation Type: Evaluation A (Pre-1980)): active; positive | mutagenic call [1]: active; positive | mutagenic call [2]: active; positive | mutagenic call [3]: active; positive | mutagenic call (Species/Cell Type: Mouse, Sex: Female, Assay Type: Spot test, gene mutation, Assay Code: MST+, Evaluation Type: Evaluation A (Pre-1980)): active; positive | call [4]: no conclusion | mutagenic call [5]: active; positive | mutagenic call (Species/Cell Type: Saccharomyces cerevisiae, Assay Type: Forward gene mutation, Assay Code: YEFT, Evaluation Type: Evaluation A (Pre-1980)): no conclusion | mutagenic call (Species/Cell Type: Saccharomyces cerevisiae, Assay Type: Mitotic recombination or gene conversion, Assay Code: YEC+, Evaluation Type: Evaluation A (Pre-1980)): active; positive | mutagenic call (Species/Cell Type: Saccharomyces cerevisiae, Assay Type: Mitotic recombination or gene conversion, Assay Code: YEH+, Evaluation Type: Evaluation A (Pre-1980)): active; positive | mutagenic call [6]: active; positive | mutagenic call (Species/Cell Type: Salmonella typhimurium, Assay Type: Forward and reverse gene mutation, host-mediated assay, Assay Code: HMA+, Evaluation Type: Evaluation A (Pre-1980)): active; positive | mutagenic call (Species/Cell Type: Syrian hamster embryo (SA7/SHE) cells, Assay Type: Cell transformation, viral enhanced, Assay Code: CT7+, Evaluation Type: Evaluation A (Pre-1980)): active; positive | mutagenic call (Species/Cell Type: Syrian hamster embryo (SHE) cells, Assay Type: Cell transformation, clonal assay, Assay Code: CTCT, Evaluation Type: Evaluation A (Pre-1980)): no conclusion

C=CCc1ccc(O)c(OC)c1
mutagenic call [7]: no conclusion | mutagenic call [3]: active; positive | mutagenic call (Species/Cell Type: Salmonella typhimurium, Assay Type: Forward and reverse gene mutation, host-mediated assay, Assay Code: HMAT, Evaluation Type: Evaluation A (Pre-1980)): no conclusion

FC(F)C(F)(F)C(F)(F)OC(F)(F)F
mutagenic call [8]: no conclusion

O=[N+]([O-])C1c2ccccc2-c2ccccc21
mutagenic call (Species/Cell Type: Escherichia coli WP2 UVRA, Assay Type: Tryptophan reverse gene mutation, Assay Code: WPU+, Evaluation Type: Evaluation A (Pre-1980)): active; positive

ClC1=C(Cl)C2(Cl)C3C(Cl)C(Cl)CC3C1(Cl)C2(Cl)Cl (stereo not drawn)
mutagenic call (Species/Cell Type: Chinese hamster lung (V79) cells, Assay Type: Forward gene mutation at the HPRT or ouabain locus, Assay Code: V79+, Evaluation Type: Evaluation A (Pre-1980)): active; positive | call [9]: active; positive | mutagenic call (Species/Cell Type: Rodents, Sex: Male, Assay Type: Dominant lethal test, Assay Code: DLTT, Evaluation Type: Evaluation A (Pre-1980)): no conclusion | mutagenic call (Species/Cell Type: Zea mays (corn), Assay Type: Gene mutation, Assay Code: ZEM+, Evaluation Type: Evaluation A (Pre-1980)): active; positive

[Be]=[O]
call [10]: active; positive

CN1CCN(CCCN2c3ccccc3Sc3ccc(S(=O)(=O)N(C)C)cc32)CC1
mutagenic call (Species/Cell Type: Rodents, Sex: Male, Assay Type: Dominant lethal test, Assay Code: DLT-, Evaluation Type: Evaluation A (Pre-1980)): inactive; negative

COc1ccc(CCN2CCC(Nc3nc4ccccc4n3Cc3ccc(F)cc3)CC2)cc1
mutagenic call [7]: no conclusion | mutagenic call (Species/Cell Type: Human, Assay Type: Sister-chromatid exchange (SCE) in vitro, Assay Code: SC1T, Evaluation Type: Evaluation B (Post-1980)): no conclusion | mutagenic call (Species/Cell Type: Mammalian polychromatic erythrocytes, Assay Type: Micronucleus test, chromosome aberrations, Assay Code: MNT-, Evaluation Type: Evaluation B (Post-1980)): inactive; negative

CC(=O)Oc1ccc2c3c1O[C@H]1[C@@H](OC(C)=O)C=C[C@H]4[C@@H](C2)N(C)CC[C@@]341
mutagenic call (Species/Cell Type: Nonhuman, Assay Type: Sister-chromatid exchange (SCE) in vivo, Assay Code: SC3+, Evaluation Type: Evaluation B (Post-1980)): active; positive

NCCBr
mutagenic call (Species/Cell Type: Schizosaccharomyces pombe, Assay Type: Reverse gene mutation, Assay Code: YEZ+, Evaluation Type: Evaluation A (Pre-1980)): active; positive

CCCC=O
mutagenic call [1]: active; positive | mutagenic call [2]: active; positive

COc1cc(/C=N/NC(=O)COc2ccc(Br)cc2CN(C)C)ccc1O
mutagenic call (Species/Cell Type: Saccharomyces cerevisiae, Assay Type: Reverse gene mutation, Assay Code: YERT, Evaluation Type: Evaluation A (Pre-1980)): no conclusion

Cc1ccc(F)c2ccc3c4ccccc4ccc3c12
mutagenic call [8]: no conclusion

Cc1cc2c(c3ccc4ccccc4c13)CCCC2=O
mutagenic call [6]: active; positive

O[C@H]1C=Cc2c(cc3ccc4cccc5ccc2c3c45)[C@@H]1O
mutagenic call (Species/Cell Type: Chinese hamster lung (V79) cells, Assay Type: Forward gene mutation at the HPRT or ouabain locus, Assay Code: V79+*, Activation: With metabolic activation, Evaluation Type: Evaluation A (Pre-1980)): active; positive | call [10]: active; positive | call [9]: active; positive | mutagenic call [5]: active; positive | mutagenic call (Species/Cell Type: Nonhuman, Assay Type: Sister-chromatid exchange (SCE) in vitro, Assay Code: SC2+D, Dose Response: With dose response, Evaluation Type: Evaluation B (Post-1980)): active; positive | mutagenic call [6]: active; positive

Nc1ccc(-c2ccc(F)cc2)cc1
mutagenic call (Species/Cell Type: Mouse embryo (AKR/ME) cells, Assay Type: Cell transformation, Assay Code: CTK+, Evaluation Type: Evaluation A (Pre-1980)): active; positive

CC(=O)O/C=C/Cc1ccc2c(c1)OCO2
mutagenic call (Species/Cell Type: Human diploid fibroblasts, Assay Type: Unscheduled DNA synthesis (UDS) in vitro, DNA effects, Assay Code: UDH+, Evaluation Type: Evaluation A (Pre-1980)): active; positive

Cc1c2c(c(C)c3ccccc13)[C@H]1O[C@H]1c1ccccc1-2
mutagenic call (Species/Cell Type: Drosophila melanogaster, Assay Type: Sex-linked recessive lethal gene mutation, Assay Code: SRL+, Evaluation Type: Evaluation A (Pre-1980)): active; positive | mutagenic call (Species/Cell Type: Mouse prostate cells, Assay Type: Cell transformation, Assay Code: CTM+D, Dose Response: With dose response, Evaluation Type: Evaluation A (Pre-1980)): active; positive | mutagenic call [11]: active; positive

Oc1ccc2ccc3c4ccccc4cc4ccc1c2c43
mutagenic call (Species/Cell Type: Chinese hamster lung (V79) cells, Assay Type: Forward gene mutation at the HPRT or ouabain locus, Assay Code: V79+/-*, Activation: With metabolic activation, Evaluation Type: Evaluation A (Pre-1980)): inactive; positive without activation, negative with activation | mutagenic call (Species/Cell Type: Escherichia coli polA (W3110 vs P3478), Assay Type: Rec-assay, DNA effects (bacterial DNA repair), Assay Code: RE2+, Evaluation Type: Evaluation A (Pre-1980)): active; positive | mutagenic call (Species/Cell Type: Escherichia coli polA (W3119 vs P3478), Assay Type: Rec-assay, DNA effects (bacterial DNA repair), Assay Code: RE1T, Evaluation Type: Evaluation A (Pre-1980)): no conclusion | call [4]: no conclusion | mutagenic call (Species/Cell Type: Saccharomyces cerevisiae, Assay Type: Mitotic recombination or gene conversion, Assay Code: YEH-, Evaluation Type: Evaluation A (Pre-1980)): inactive; negative | mutagenic call [11]: active; positive | mutagenic call (Species/Cell Type: Salmonella typhimurium, Assay Type: Forward and reverse gene mutation, host-mediated assay, Assay Code: HMA-, Evaluation Type: Evaluation A (Pre-1980)): inactive; negative

Cc1cc(C(=O)NCCc2ccc(S(=O)(=O)NC(=O)NN3CCCCCC3)cc2)no1
mutagenic call (Species/Cell Type: Nonhuman, Assay Type: Sister-chromatid exchange (SCE) in vivo, Assay Code: SC3T, Evaluation Type: Evaluation B (Post-1980)): no conclusion
